Measurements as given in patent US10330673B2, “Fluorescent chemical sensor for biological amines” (The Curators of the University of Missouri, priority 2013, dated 2019).

Columns and labels:
[1] = Fluorescence titration of sensor with glycine; format: binding; details: amine guest glycine
[2] = Fluorescence titration of sensor with dopamine; format: binding; details: for Ka: pH 5.0, 37° C.
Experimental: (§1) Fluorescence spectra were recorded on a Shimadzu RF-5301 PC spectrofluorometer at 37° C. A 1 mg/mL stock solution of I-2 in DMSO was prepared. A stock solution of I-2 in buffer (1×10^−5 M, 25 mM HEPES, 50 mM Na2S2O3, pH=5.0) was prepared. Norepinephrine, dopamine, epinephrine, and glutamate stock solutions were prepared by separately dissolving the analytes at the concentration to be used in the titration with the buffered stock solution of I-2 (thus avoiding dilution of I-2 during the experiment). I-2 was titrated with aliquots of analyte solution. The sensor was excited at 488 nm with slit widths of 5 nm.
(§2) Fluorescence spectra were recorded on a Shimadzu RF-5301 PC spectrofluorometer at 37° C. A separate 1 mg/mL stock solution of each coumarin-3-aldehyde derivative in DMSO was prepared. An aqueous stock solution of each derivative (10 μM) in buffer (25 mM HEPES, 50 mM Na2S2O3, pH=5.0) was prepared. Norepinephrine, dopamine, glutamate, and epinephrine stock solutions were prepared by separately dissolving the solid analytes at the concentration to be used in the titration with the buffered stock solutions described above and thus, avoiding dilution of the sensor during the experiment. The benzene-based NS521 derivatives were excited at 488 nm. The thiophene-based derivatives were excited at 515 nm.

[3] = system: NE-enriched chromaffin cells; test: Fixed-cell staining with I-2 and anti-PNMT antibody, NE-enriched cells; format: cell-based, bovine; details: 1 μM, fixed in 4% paraformaldehyde, visualized at 525 nm
Source text: To further validate the selectivity of the inventive sensor, the inventive detection method is validated with an established procedure in which phenylethanolamine N-methyltransferase (PNMT) is stained with an antibody and visualized with a Cy3-conjugated secondary antibody. It has been shown that epinephrine-enriched cell populations gave the highest level of PNMT staining, while norepinephrine-enriched populations gave lower staining (ca. 20% of that with epinephrine-enriched cells). For this experiment, three populations of chromaffin cells (norepinephrine-enriched, epin ephrine-enriched, and mixed) were stained with Compound I-2 and fixed in 4% paraformaldehyde. The fixed cells were stained with the anti-PNMT and secondary antibodies.
Chromaffin cells were isolated from bovine adrenal glands as previously described. […]
NE-enriched cells, EP-enriched cells and mixed cells stained with I-2 (1 μM) and plated on 0.0025% Poly (1-lysine) coated cover slips, after three washed with pre-warmed phosphate-buffered saline (pH=7.4, PBS), were fixed in 4% paraformaldehyde (Sigma, St. Louis, Mo., USA) in PBS for 60 min at room temperature (RT), followed by 6 min in methanol chilled to −20° C. […] After three washed in PBS, bound antibody was detected using Cy™3-conjugated AffiniPure Donkey Anti-Rabbit (1:150 dilution, Jackson ImmunoResearch Laboratories, Inc, Nest Grove, Pa., 19390). […]

[4] = Fluorescence titration of sensor with norepinephrine; format: binding; details: for Ka: pH 5.0, 37° C.
Experimental: as §1, §2

[5] = Table 2, analyte dopamine, benzene-based compounds I, excited at 488 nm
[6] = Table 2, analyte norepinephrine, benzene-based compounds I, excited at 488 nm

## CCN(CC)c1ccc2c(-c3ccc(OC)cc3)c(C=O)c(=O)oc2c1 [Compound I-2, 7-diethylamino-3-formyl-4-(4′-methoxyphenyl)coumarin]
[1]; fluorescence spectroscopy, λex = 488 nm, λem = 521 nm
  Ka: 8 M⁻¹
[1]; intensity at saturation from fit to binding isotherm
  Isat/Io (λex = 488 nm): 11.1
[2]; [5]
  F.E.: 2.98
  Ka: 112.10 M⁻¹
[2]; amine guest dopamine, fluorescence spectroscopy, λex = 488 nm, λem = 521 nm
  Ka: 112 M⁻¹
[2]; amine guest dopamine, intensity at saturation from fit to binding isotherm
  Isat/Io (λex = 488 nm): 3.0
[3]
  staining of fixed cells by sensor: stain brightly
[4]; [6]
  F.E.: 5.40
  Ka: 77.76 M⁻¹
[4]; amine guest norepinephrine, fluorescence spectroscopy, λex = 488 nm, λem = 521 nm
  Ka: 75 M⁻¹
[4]; amine guest norepinephrine, intensity at saturation from fit to binding isotherm
  Isat/Io (λex = 488 nm): 5.3
[4]; higher binding constants
  binding constants of catecholamines (norepinephrine, dopamine) relative to other alkyl amines such as glycine: 10 fold
